pKi: −log10 of the molar value.
Target: Aβ(1–40) fibrils (Homo sapiens, UniProt P05067)
Test: radioligand displacement of [3H]Chrysamine-G, filtration assay
Assay type: binding

Aβ(1–40) fibrils, sequence (P05067 672-711): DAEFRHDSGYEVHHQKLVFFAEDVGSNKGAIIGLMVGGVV

Row | SMILES | pKi
1 | COc1cc(/C=C/c2ccc(/C=C/c3ccc(O)c(O)c3)cc2)ccc1O [X:034-3-OMe1, (E,E)-1-(3’,4’-dihydroxystyryl)-4-(3’-methoxy-4’hydroxystyryl)benzene] | 7.68
2 | O=C(O)c1cc(/C=C/C=C/c2ccc(/C=C/C=C/c3ccc(O)c(C(=O)O)c3)cc2)ccc1O [X:EE:B34, 1,4-bis[(1E,3E)-4-(3’-carboxy-4’-hydroxyphenyl)-1,3-butadienyl]-benzene] | 9.89
